The supplement of paper PMC10307832

What follows are cell lines tested with CN1CCC(CC1)OC2=CC(=C(C=C2)NC3=NC=C4C(=N3)N(C(=O)N4C)C5CCCC5)OC [AZ3146] + CS(=O)(=O)CCNCc1ccc(-c2ccc3ncnc(Nc4ccc(OCc5cccc(F)c5)c(Cl)c4)c3c2)o1 [Lapatinib] (partner 2 µM) (assay: relative viability (nuclei count vs DMSO), 5 days (fraction); higher = more cells survive). Settings: first compound 0.08 µM.
Outline: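 Lung cancer cell lines were seeded in 1536-well plates and dosed by pin tool the next day, with either a single drug or a fixed anchor-drug dose combined with five library-drug doses (not always all listed) spaced in √10 steps. Five days later, one step fixed the cells and stained their nuclei (final 0.05% Triton X-100, 1% formaldehyde, 1 ug/ml Hoechst), and nuclei were counted on 4× images. Relative viability is the nuclei count in treated wells divided by the count in vehicle wells, and each value is the median of duplicate plates.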

Cell Line	relative viability
NCI-H23	1.11
EPLC-272H	0.897
NCI-H2126	0.691
HCC-44	0.907
NCI-H1734	1.05
NCI-H650	0.804
LK-2	0.754
NCI-H2228	1.08
HARA	0.652
Calu-6	1.07
COR-L23	1
LXF-289	0.846
EBC-1	0.2
NCI-H358	0.595
NCI-H322M	0.72
LC-2-ad	0.828

Cell Line	relative viability
HCC-827	0.155
A549	0.977
NCI-H1299	0.892
CAL-12T	0.701
HCC-15	0.873
HOP-62	0.958
NCI-H460	0.877
LU99A	0.864
NCI-H2085	0.731
A-427	0.988
NCI-H520	0.797
NCI-H838	1.07
NCI-H1792	0.854
NCI-H596	1.05
NCI-H3122	1.09

Same assay, conditions: first compound 0.253 µM

Cell Line	relative viability
NCI-H23	1.22
EPLC-272H	0.911
NCI-H2126	0.745
HCC-44	0.953
NCI-H1734	1.17
NCI-H650	0.844
LK-2	0.961
NCI-H2228	1.13
NCI-H1944	0.801
HARA	0.851
Calu-6	1.16
COR-L23	1.02
LXF-289	0.924
EBC-1	0.218
NCI-H358	0.471
NCI-H322M	0.593

Cell Line	relative viability
LC-2-ad	1.04
HCC-827	0.191
A549	0.948
NCI-H1299	0.97
HCC-15	0.819
HOP-62	0.975
NCI-H460	1.11
LU99A	1.15
NCI-H2085	0.752
A-427	1.03
NCI-H520	0.84
NCI-H838	0.939
NCI-H1792	1.09
NCI-H596	0.94
NCI-H3122	1.04

Same assay, conditions: first compound 0.8 µM

Cell Line	relative viability
NCI-H23	1.14
EPLC-272H	0.957
NCI-H2126	0.707
HCC-44	0.999
NCI-H1734	1.07
NCI-H650	0.667
LK-2	0.914
NCI-H2228	1.21
NCI-H1944	0.819
HARA	0.662
Calu-6	1.01
COR-L23	0.871
LXF-289	0.889
EBC-1	0.183
NCI-H358	0.377
NCI-H322M	0.609
